Source: US10758541B2, “Formulations of milciclib and therapeutic combinations of the same for use in the treatment of cancer” (Tiziana Life Sciences PLC, priority 2017, dated 2020)
Like-named read-outs stand apart in the source and are kept apart here.

Legend:
[1] = system: MHCC97H cells; assay: EMT transwell invasion assay; assay type: cell-based, human; conditions: in combination with milciclib, vs individual treatment, P<0.005
Experimental: (§1) EMT (Epithelial to Mesenchymal Transition) induction employing kit from R&D systems (Cat # CCM017)
(§2) For transwell invasion assay HCC cells were seeded in the top chamber in 6 well transwell plates (Sigma-Aldrich, St. Louis, Mo.) at a density of 100,000 cells/500 μL/well in standard culture media containing 100× StemXVivo® EMT Inducing Media Supplement (R&D systems, Minneapolis, Minn.) and was incubated overnight at 37° C. in humidified CO2 incubator. Next day, EMT inducing media with or without the test articles was added and incubation was continued for 10 days with media changes every 3 days. On the 10th day, the number of cells migrated to the lower chamber was determined using Bio-Rad (Hercules, Calif.) automatic cell counter. Values obtained were expressed as a percentage of invasion and the cell counts of control cells were considered 100%.
(§3) The invasive potential of cancer cells is dependent on losing epithelial characteristics and acquiring a migratory mesenchymal property referred to as Epithelial to Mesenchymal Transition (EMT).

[2] = system: MHCC97L cells; assay: EMT transwell invasion assay; assay type: cell-based, human; conditions: in combination with milciclib, vs individual treatment, P<0.005
Experimental: as §1, §2, §3

[3] = system: HepG2.2.15 cells; assay: IC50 values by cell proliferation assay (WST-1); assay type: cell-based; conditions: Homo sapiens, read-out: HepG2.2.15 IC50
Description: (§4) See Shailubhai, K et al. “Atiprimod is an inhibitor of cancer cell proliferation and angiogenesis.” J Exp Ther Oncol. 2004; 4: 267-279; and Choudhari et al. “Deactivation of Akt and STAT3 signaling promotes apoptosis, inhibits proliferation, and enhances the sensitivity of hepatocellular carcinoma cells to an anticancer agent, atiprimod” Molecular Cancer Therapeutics. 2007; 6: 112-121. References are incorporated herein in their entireties.
HepG2.2.15 cells are derived from the human hepatoblastoma cell line HepG2.
(§5) Cells (MHCC97H, MHCC97L, and HepG2.2.15) were cultured for 24 hours in 2% FBS and then were trypsinized, resuspended in 2% FBS and seeded in a rat collagen coated 96-well plate at a density of 10,000 cells/100 μl/well, a day before the experiment and cultured at 37° C. in 5% CO2. The cells were treated the next day with milciclib, sorafenib, regorafenib, sunitinib, and lenvatinib, individually or in combination in DMEM/F12+2% FBS+for 72 hours prior to the addition of WST-1 reagent. About 100 μL media was added to control well. After cells had been cultured for 72 hours with different drug concentrations, cells were washed 3 times with sterile 1× Phosphate buffered saline (PBS). To determine cell proliferation by the colorimetric test, 10 μL of WST-1 reagent (Sigma Aldrich, St Louis, Mo.) was added in 100 μL cell culture media and incubated for 2 hours in 5% CO2 at 37° C. At the end of incubation period, the plate was placed on a plate shaker for 1 minute and was monitored using a spectrophotometer at an optical density of 450 nm with a reference wavelength of 600 nm using Tecan F200 and iControl software. IC50 values were determined using GraphPad Prism (GraphPad Software, La Jolla, Calif.). Each experiment was performed in duplicate and repeated 2 times.

[4] = system: MHCC97L cells; assay: IC50 values by cell proliferation assay (WST-1); assay type: cell-based; conditions: Homo sapiens, individual inhibitor, 72 hours
Description: as §4
(§6) MHCC97H and MHCC97L (highly metastatic hepatocellular carcinoma cell line, derived from humans)
as §5

[5] = system: MHCC97H cells; assay: IC50 values by cell proliferation assay (WST-1); assay type: cell-based, human
Experimental: as §6
as §5, with “After cells had been cultured for 72 hours with different drug concentrations, cells were washed 3 times with sterile 1× Phosphate buffered saline (PBS).” left out

[6] = system: MHCC97H human liver cells; assay: Orthotopic tumor induction in athymic nude mice; assay type: in vivo; conditions: oral, once daily day 12 to 47; milciclib 30 mg/kg/day, sorafenib 20 mg/kg/day; vs vehicle
Experimental: Mouse experiments were performed in accordance with the guidelines approved by the Institutional Animal Care and use committee of Washington Biotechnology Inc (Baltimore, Md.) where the studies were conducted. (FIG. 66) Test agents were dissolved in chremophor/ethanol (1:1) to make a 5× stock solution and diluted in water when used. MHCC97H human liver cells (5×106) in PBS were mixed with 20% Matrigel and then inoculated orthotopically into the right flank of female Balb/c nude mice. Seven days after cell inoculation, the mice were randomly allocated to either the treatment group (n=12) or the control group (n=12) based on the levels of AFP. The daily animal inspection was conducted for general appearance and tumor growth. Milciclib (30 mg/Kg), sorafenib (20 mg/Kg), milciclib+sorafenib or the corresponding vehicle was given orally to individual mice once daily from day 12 until day 47. After completion of the treatment at day 48, animals were euthanized and blood, liver tissues and tumor were collected for gene expression and mechanistic assays. Liver tumors developed 100% of animals challenged with orthotopic MHCC97H injection.

[7] = system: alpha-fetoprotein (AFP); assay: Serum AFP in orthotopic HCC mouse model; assay type: in vivo, mice; conditions: milciclib 30 mg/kg, sorafenib 20 mg/kg, oral, vs vehicle
Experimental: MHCC97H cells were seeded at a density of 500,000 cells/2 mL/well on a 6 well culture plate and incubated overnight at 37° C. in a humidified CO2 incubator. Cells were then treated with 1.3 μM milciclib or vehicle in DMEM/F12+2% FBS for 72 hours. Subsequently, cells were lysed in RIPA buffer, the supernatant was collected and used to perform ELISA assay as per the manufacturer's instructions. In orthotopic HCC mouse model, levels of serum marker alpha-fetoprotein (AFP) were determined on day 0, 6, 12, 18, 24, 30, 36, 42 and 48 using High Range AFP kit as per manufacturer's instructions.
Mouse experiments were performed in accordance with the guidelines approved by the Institutional Animal Care and use committee of Washington Biotechnology Inc (Baltimore, Md.) where the studies were conducted. (FIG. 66) Test agents were dissolved in chremophor/ethanol (1:1) to make a 5× stock solution and diluted in water when used. MHCC97H human liver cells (5×106) in PBS were mixed with 20% Matrigel and then inoculated orthotopically into the right flank of female Balb/c nude mice. Seven days after cell inoculation, the mice were randomly allocated to either the treatment group (n=12) or the control group (n=12) based on the levels of AFP. The daily animal inspection was conducted for general appearance and tumor growth. […]

[8] = system: miR-221 and miR-222; assay: miRNA isolation and expression analysis of tumor tissues; assay type: in vivo; conditions: tumor tissues from orally treated mice, vs vehicle
Experimental: miRNA from athymic nude mice following treatment with vehicle, milciclib, sorafenib, or milciclib+sorafenib was isolated from Total RNA using the TaqMan Advanced miRNA cDNA Synthesis Kit (Thermo Fisher Scientific, Rockford, Ill.) according to the manufacturer's instructions. miRNA-221 and miR-222 quantifications were performed in duplicates using TaqMan Advanced miRNA Assay (Thermo Fisher Scientific, Rockford, Ill.) with a sample dilution of 1:10. The PCR mixture was incubated at 95° C. for 20 seconds, followed by 40 cycles of 95° C. for 3 seconds and 60° C. for 30 seconds. Results were normalized to hsa-miR-192-5p as reference miRNA and the relative gene expression calculated as 2−ΔCT was expressed as fold increase over control samples.
Tumor tissues from mice treated with vehicle, sorafenib, milciclib, milciclib+sorafenib and normal liver tissues from naïve untreated mice were collected and levels of miR-221 and miR-222 were determined. The levels of both of miR-221 and miR-222 were elevated in tumors from vehicle treated mice.

[9] = Homo sapiens, MHCC97H, individual inhibitor, 72 hours, WST-1, read-out: MHCC97H IC50
[10] = Homo sapiens, MHCC97H cells, in combination with fixed 1.3 μM milciclib, read-out: IC50 (μM) KINASE INHIBITORS + 1.3 μM MILCICLIB
[11] = Homo sapiens, MHCC97H cells, inhibitor alone (synergy studies), read-out: IC50 (μM) OF KINASE INHIBITORS
[12] = MHCC97H cells, in combination with fixed 1.3 μM milciclib, read-out: IC50 (μM) KINASE INHIBITORS + 1.3 μM MILCICLIB
[13] = HepG2.2.15, individual inhibitor, 72 hours, WST-1
[14] = Homo sapiens, MHCC97H, 72 h, MHCC97H cells, inhibitor alone (synergy studies), read-out: IC50 (μM) OF KINASE INHIBITORS

SMILES	invasion potential [1]	invasion potential [2]	IC50 ([3]; HepG2.2.15, 72 h)	IC50 [4]	IC50 [5, 9]	IC50 [5, 10]	IC50 [5, 11]	IC50 ([5]; Homo sapiens, 72 h, MHCC97H cells, inhibitor alone (synergy studies), read-out: IC50 (μM) OF KINASE INHIBITORS)	IC50 [5, 12]	IC50 [3, 13]	reducing tumor growth [6]	serum AFP levels [7]	IC50 [5, 14]	IC50 ([5]; Homo sapiens, MHCC97H, MHCC97H cells, in combination with fixed 1.3 μM milciclib, read-out: IC50 (μM) KINASE INHIBITORS + 1.3 μM MILCICLIB)	IC50 ([5]; Homo sapiens, MHCC97H, MHCC97H cells, inhibitor alone (synergy studies), read-out: IC50 (μM) OF KINASE INHIBITORS)	expression of miR-221 and miR-222 [8]	IC50 ([5]; Homo sapiens, MHCC97H, 72 h, individual inhibitor, 72 hours, WST-1, read-out: MHCC97H IC50)
COc1cc2nccc(Oc3ccc(NC(=O)NC4CC4)c(Cl)c3)c2cc1C(N)=O [LENVATINIB, lenvatinib]	reduced the invasion potential to a greater extent	reduced the invasion potential to a greater extent	0.24 µM	0.14 µM	0.28 µM	0.12 µM	0.28 µM	–	–	–	–	–	–	–	–	–	–
CC(=O)c1c(C)c2cnc(Nc3ccc(N4CCNCC4)cn3)nc2n(C2CCCC2)c1=O [PALBOCICLIB, palbociclib]	–	–	11.1 µM	8.2 µM	14.5 µM	–	–	14.5 µM	6.7 µM	–	–	–	–	–	–	–	–
CNC(=O)c1cc(Oc2ccc(NC(=O)Nc3ccc(Cl)c(C(F)(F)F)c3)c(F)c2)ccn1 [REGORAFENIB, regorafenib]	reduced the invasion potential to a greater extent	reduced the invasion potential to a greater extent	–	3.5 µM	4.7 µM	1.9 µM	4.7 µM	–	–	3.94 µM	–	–	–	–	–	–	–
CNC(=O)c1cc(Oc2ccc(NC(=O)Nc3ccc(Cl)c(C(F)(F)F)c3)cc2)ccn1 [SORAFENIB, sorafenib]	reduced the invasion potential to a greater extent	reduced the invasion potential to a greater extent	–	8.8 µM	12 µM	–	–	–	–	6.48 µM	21%	Significantly lower	12 µM	6.7 µM	12 µM	modestly reduced	–
CCN(CC)CCNC(=O)c1c(C)[nH]c(/C=C2\C(=O)Nc3ccc(F)cc32)c1C [SUNITINIB, sunitinib]	–	–	–	8.2 µM	–	–	–	–	17.2 µM	25.4 µM	–	–	30.4 µM	–	–	–	30.5 µM
